Assay results as given in patent US10099993B2, “Metabotropic glutamate receptor positive allosteric modulators (PAMS) and uses thereof” (Sanford-Burnham Medical Research Institute, priority 2014, dated 2018).

How the values were obtained:
[1] = molecular target: mGlu2 (Rattus norvegicus (Rat), UniProt P31421); experiment: mGlu2 GIRK thallium flux assay; conditions: for Emax: read-out: mGlu2 PAM Max; for mGlu2 PAM Max / EC50: PAM mode, mean ± SEM, at least three experiments; for mGlu2 PAM Max: % Glutamate Max; for EC50: read-out: mGlu2 PAM EC50, test compound, then EC20 glutamate […] later in the presence of thallium;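 as to all read-outs here: Cell-based assay, rate of fluorescence rise right after thallium plus agonist addition read on a kinetic imaging plate reader, normalized to vehicle and maximal agonist control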
[2] = molecular target: mGlu3 (Rattus norvegicus (Rat), UniProt P31422); experiment: mGlu3 GIRK thallium flux assay; conditions: for Emax: read-out: mGlu3 PAM Max; for mGlu3 PAM Max / EC50: PAM mode, mean ± SEM; for mGlu3 PAM Max: % Glutamate Max; for EC50: read-out: mGlu3 PAM EC50, test compound, then EC20 glutamate […] later in the presence of thallium;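 as to all read-outs here: kinetic fluorescence slope read shortly after thallium plus agonist addition, scaled between vehicle and maximal agonist control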
Chain of mGlu3 (P31422 23-879): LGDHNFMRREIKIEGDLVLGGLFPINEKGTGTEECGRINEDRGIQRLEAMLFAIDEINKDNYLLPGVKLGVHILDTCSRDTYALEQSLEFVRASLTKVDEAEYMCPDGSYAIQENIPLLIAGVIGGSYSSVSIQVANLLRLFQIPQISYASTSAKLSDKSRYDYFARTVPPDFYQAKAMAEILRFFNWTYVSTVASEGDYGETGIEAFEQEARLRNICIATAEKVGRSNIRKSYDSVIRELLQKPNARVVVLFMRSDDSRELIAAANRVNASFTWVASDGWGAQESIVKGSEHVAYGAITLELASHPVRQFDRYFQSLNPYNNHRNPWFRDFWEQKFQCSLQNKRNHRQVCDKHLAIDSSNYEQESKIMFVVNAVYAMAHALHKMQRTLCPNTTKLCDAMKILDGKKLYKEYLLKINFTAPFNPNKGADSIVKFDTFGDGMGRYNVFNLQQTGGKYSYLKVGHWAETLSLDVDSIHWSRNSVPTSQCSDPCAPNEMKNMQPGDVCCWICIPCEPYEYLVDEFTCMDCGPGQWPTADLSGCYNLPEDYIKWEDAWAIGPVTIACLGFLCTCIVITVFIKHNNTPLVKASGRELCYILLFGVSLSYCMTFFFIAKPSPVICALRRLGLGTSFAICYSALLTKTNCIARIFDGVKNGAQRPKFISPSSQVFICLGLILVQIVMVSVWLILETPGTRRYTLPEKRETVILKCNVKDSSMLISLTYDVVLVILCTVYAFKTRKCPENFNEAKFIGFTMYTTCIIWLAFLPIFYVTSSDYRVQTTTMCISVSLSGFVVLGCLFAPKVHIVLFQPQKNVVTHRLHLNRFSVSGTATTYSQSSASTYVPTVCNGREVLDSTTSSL

Chain of mGlu2 (P31421 19-872): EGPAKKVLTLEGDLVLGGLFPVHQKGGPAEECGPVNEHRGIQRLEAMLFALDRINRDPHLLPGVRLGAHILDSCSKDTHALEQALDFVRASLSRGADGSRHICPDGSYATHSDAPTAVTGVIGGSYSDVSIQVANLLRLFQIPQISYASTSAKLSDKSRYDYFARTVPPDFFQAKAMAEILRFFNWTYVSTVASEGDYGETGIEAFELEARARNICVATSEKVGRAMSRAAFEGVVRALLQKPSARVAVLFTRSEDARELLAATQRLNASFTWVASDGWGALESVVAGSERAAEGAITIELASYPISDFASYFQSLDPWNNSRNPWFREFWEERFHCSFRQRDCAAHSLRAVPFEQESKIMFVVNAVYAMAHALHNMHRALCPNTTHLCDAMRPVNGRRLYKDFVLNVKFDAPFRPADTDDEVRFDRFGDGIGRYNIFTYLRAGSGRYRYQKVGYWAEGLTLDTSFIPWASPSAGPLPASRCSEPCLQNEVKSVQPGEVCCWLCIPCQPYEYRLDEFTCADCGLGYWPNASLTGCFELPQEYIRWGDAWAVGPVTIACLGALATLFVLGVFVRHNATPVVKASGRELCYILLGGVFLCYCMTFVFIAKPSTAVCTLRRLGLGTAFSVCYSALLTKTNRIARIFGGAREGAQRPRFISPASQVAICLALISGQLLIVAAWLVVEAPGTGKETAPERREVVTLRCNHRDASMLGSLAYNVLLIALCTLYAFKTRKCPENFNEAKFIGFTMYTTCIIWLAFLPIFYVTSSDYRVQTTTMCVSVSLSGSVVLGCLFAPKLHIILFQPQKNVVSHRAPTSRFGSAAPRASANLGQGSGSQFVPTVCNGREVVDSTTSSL

Compound: COc1ccc(C(=O)Nc2ccccn2)cc1OCCCCOc1ccc(C(=O)CC(C)(C)C)c(O)c1C [compound 106, 3-(4-(4-(3,3-Dimethylbutanoyl)-3-hydroxy-2-methylphenoxy)butoxy)-4-methoxy-N-(pyridin-2-yl)benzamide]
- Emax [1]: 74.8 ± 5.9%
- Emax [2]: 97.4 ± 9.4%

Compound: COc1ccc(C(=O)N2CCN(S(C)(=O)=O)CC2)cc1OCCCCOc1ccc(C(=O)CC(C)(C)C)c(O)c1C [compound 107, 1-{2-Hydroxy-4-[4-(2-methoxy-5-{[4-(methylsulfonyl)piperazinyl]carbonyl}phenoxy)butoxy]-3-methylphenyl}-3,3-dimethylbutan-1-one]
- mGlu2 PAM Max [1]: 22.1 ± 1.1%
- EC50 [1]: > 30 µM
- mGlu3 PAM Max [2]: 22.9 ± 1.5%
- EC50 [2]: > 30 µM

Compound: COc1ccc(C(=O)NC(C)(C)C)cc1OCCCCOc1ccc(C(=O)CC(C)(C)C)c(O)c1C [compound 108, N-(tert-Butyl)-3-(4-(4-(3,3-dimethylbutanoyl)-3-hydroxy-2-methylphenoxy)butoxy)-4-methoxybenzamide]
- EC50 [1]: > 10 µM
- Emax [1]: 38.6 ± 1.1%
- EC50 [2]: > 30 µM
- Emax [2]: 33.4 ± 5.3%

Compound: COc1ccc(C(=O)NC2CC2)cc1OCCCCOc1ccc(C(=O)CC(C)(C)C)c(O)c1C [compound 109, N-Cyclopropyl-3-(4-(4-(3,3-dimethylbutanoyl)-3-hydroxy-2-methylphenoxy)butoxy)-4-methoxybenzamide]
- EC50 [1]: 0.765 ± 0.005 µM
- Emax [1]: 101.5 ± 0.9%
- EC50 [2]: 0.578 ± 0.012 µM
- Emax [2]: 106 ± 5.1%

Compound: COc1ccc(C(=O)NCC(C)C)cc1OCCCCOc1ccc(C(=O)CC(C)(C)C)c(O)c1C [compound 110, 3-(4-(4-(3,3-Dimethylbutanoyl)-3-hydroxy-2-methylphenoxy)butoxy)-N-isobutyl-4-methoxybenzamide]
- EC50 [1]: 6.4 ± 0.389 µM
- Emax [1]: 48.4 ± 5.5%
- EC50 [2]: > 30 µM
- Emax [2]: 31.7 ± 8.5%

Compound: Cc1c(OCCCCOc2ccc(CCC(=O)O)c(O)c2)ccc(C(=O)CC(C)C)c1C [compound 111]
- EC50 [1]: > 10 µM
- EC50 [2]: > 30 µM

Compound: COc1ccc(C(=O)NC2CCCC2)cc1OCCCCOc1ccc(C(=O)CC(C)(C)C)c(O)c1C [compound 112, N-Cyclopentyl-3-(4-(4-(3,3-dimethylbutanoyl)-3-hydroxy-2-methylphenoxy)butoxy)-4-methoxybenzamide]
- EC50 [1]: > 10 µM
- Emax [1]: 35 ± 5.8%
- EC50 [2]: > 30 µM
- Emax [2]: 40.3 ± 1.6%

Compound: COc1ccc(C(=O)NS(=O)(=O)c2ccccc2)cc1OCCCCOc1ccc(C(=O)CC(C)(C)C)c(O)c1C [compound 113, 3-(4-(4-(3,3-Dimethylbutanoyl)-3-hydroxy-2-methylphenoxy)butoxy)-4-methoxy-N-(phenylsulfonyl)benzamide]
- EC50 [1]: 0.872 ± 0.004 µM
- Emax [1]: 102 ± 2.9%
- EC50 [2]: 1.08 ± 0.021 µM
- Emax [2]: 109 ± 3.5%

Compound: Cc1c(OCc2cccc(COc3ccc(C#N)cc3)c2)ccc(C(=O)CC(C)C)c1C [compound 115]
- EC50 [1]: > 30 µM
- EC50 [2]: > 30 µM

Compound: COC(=O)c1ccc(OCc2cccc(COc3ccc(C(=O)CC(C)C)c(C)c3C)c2)cc1 [compound 116]
- EC50 [1]: > 30 µM
- EC50 [2]: > 30 µM

Compound: Cc1c(OCc2cccc(COc3ccc(C#N)cc3)c2)ccc(C(=O)CC(C)C)c1O [compound 118]
- EC50 [1]: > 30 µM
- EC50 [2]: > 30 µM

Compound: COC(=O)c1ccc(OCc2cccc(COc3ccc(C(=O)CC(C)C)c(O)c3C)c2)cc1 [compound 119]
- EC50 [1]: > 30 µM
- EC50 [2]: > 30 µM

Compound: Cc1c(OCc2cccc(COc3ccc(C(=O)O)cc3)c2)ccc(C(=O)CC(C)C)c1C [compound 123]
- EC50 [1]: > 30 µM
- EC50 [2]: > 30 µM

Compound: Cc1c(OCc2cccc(COc3ccc(C(=O)O)cc3)c2)ccc(C(=O)CC2CCCC2)c1C [compound 124]
- EC50 [1]: > 30 µM
- EC50 [2]: > 30 µM

Compound: Cc1c(OCc2cccc(COc3ccc(C(=O)O)cc3)c2)ccc(C(=O)CC(C)C)c1O [compound 125]
- mGlu2 PAM Max [1]: 82.7 ± 7.2%
- EC50 [1]: 0.238 ± 0.051 µM
- mGlu3 PAM Max [2]: 13.9 ± 3.1%
- EC50 [2]: > 30 µM

Compound: Cc1c(OCc2cccc(COc3ccc(C(=O)O)cc3)c2)ccc(C(=O)CC2CCCC2)c1O [compound 126]
- EC50 [1]: > 10 µM
- EC50 [2]: > 30 µM
